According to patent publication US20250171404A1, “PCNA INHIBITORS AND USES THEREOF” (CITY OF HOPE, priority 2022, published 2025):

Assays:
[1] = system: nonmalignant cells, including human PBMCs, small airway epithelial cells (hSEAC), and neural crest stem cells (7SM0032); experiment: Toxicity to nonmalignant cells
PCNA = molecular target: T1, PCNA (Homo sapiens, UniProt P12004); experiment: Thermal denaturation (thermal shift) assay; assay type: binding; details: 9 μM PCNA; 10 or 30 μM compound; dose dependent
T1 construct: made in house; host or cells: E. coli Rosetta 2 (DE3)
T1 sequence (P12004 whole entry): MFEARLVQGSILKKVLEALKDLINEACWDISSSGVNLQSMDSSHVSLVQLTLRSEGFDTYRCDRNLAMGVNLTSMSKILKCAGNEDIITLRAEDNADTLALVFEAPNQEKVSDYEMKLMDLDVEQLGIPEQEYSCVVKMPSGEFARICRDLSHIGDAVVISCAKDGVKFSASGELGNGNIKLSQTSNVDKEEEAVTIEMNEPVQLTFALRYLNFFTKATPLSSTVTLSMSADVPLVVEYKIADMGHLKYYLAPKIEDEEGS
Experimental: FIGS. 1A-1E. AOH1160 analog interactions with PCNA. FIG. 1A: Thermal shift assay: Normalized inverse derivative thermal denaturation plots of 9 μM apo-PCNA with DMSO control is depicted with a black dashed line and PCNA in the presence of 10 μM AOH1160LE is shown in light grey and 30 μM AOH1160LE in dark grey. ΔTm values are provided. FIG. 1B: As described in FIG. 1A, in the presence of 10 μM AOH1996 depicted in light grey and 30 μM AOH1996 depicted in dark grey. FIG. 1C: Four monomers (chains A-D) of PCNA are present in the asymmetric unit of the crystal. Chains A, B, and C form the homotrimer biological unit, while chain Dis orientated perpendicular to the plane of the ring, below the interface of chains B and C and it belongs to an adjacent ring. Inset: Three molecules of AOH1160LE bind in and adjacent to the PIP box cavity of each of the PCNA ring subunits. The omit map, gray mesh, is contoured to 1.56. Two PCNA monomer subunits from adjacent rings stack against each other, placing the PIP box and IDCLs of each subunit in opposing directions. FIG. 1D: The three AOH1160LE molecules are shown as stick figure representations. Two of the compounds, left and central, bind into the PIP box cavity at known PCNA-partner/compound interaction sites. […] The electrostatic surface maps are depicted with Poisson-Boltzmann electrostatic surface potentials shown in dark grey and light grey, corresponding to −10 to +10 kT/e respectively.
Targeting the PIP box and APIM binding domain of PCNA. AOH1160, a small molecule PCNA ligand, targets the cancer-distinct L126-Y133 region of PCNA (Malkas et al., 2006) and is selectively toxic to cancer cells (Gu et al., 2018). […]
Thermal denaturation assay for PCNA-AOH1996 interaction. […] Fluorescence intensity was measured within the excitation/emission ranges 470-505/540-700 nm.

HTC-116 = experiment: Cell growth IC50, screening of AOH1160 analogs; assay type: cell-based; details: read-out: IC50 values
MDA-MB-468 = experiment: Cell growth IC50, screening of AOH1160 analogs; assay type: cell-based; details: Homo sapiens, MDA-MB-468, read-out: IC50 values
HCT-116 = experiment: Cell growth IC50, screening of AOH1160 analogs; assay type: cell-based; details: Homo sapiens, HCT-116, read-out: IC50 values
OVCAR8 = experiment: Cell growth IC50, screening of AOH1160 analogs; assay type: cell-based; details: Homo sapiens, OVCAR-8, read-out: IC50 values
RKO = experiment: Cell growth IC50, screening of AOH1160 analogs; assay type: cell-based; details: Homo sapiens, read-out: IC50 values

## COc1cccc(Oc2ccccc2NC(=O)CNC(=O)c2cccc3ccccc23)c1 [AOH1996, N-(2-((2-(3-methoxyphenoxy)phenyl)amino)-2-oxoethyl)-1-naphthamide]
[1]
  difference in sensitivity between cancer and normal cells: 30 fold
[1]; human PBMCs, hSEAC, 7SM0032
  concentration up to which not significantly toxic: at least 10 μM
PCNA
  shift of protein melting curves (ΔTm): ≤ 1.5 °C
HTC-116
  IC50: 250 nM
MDA-MB-468
  IC50: 740 nM
HCT-116
  IC50: 786 nM
OVCAR8
  IC50: 549 nM
RKO
  IC50: 255 nM
